In PMC4163838 (The Biochemical journal, 2014):

Assays:
[1] = molecular target: T1, AKR1D1 (human steroid 5β-reductase) (Homo sapiens, UniProt P51857); experiment: fluorescence titration; assay type: binding
T1 sequence (P51857 1-326): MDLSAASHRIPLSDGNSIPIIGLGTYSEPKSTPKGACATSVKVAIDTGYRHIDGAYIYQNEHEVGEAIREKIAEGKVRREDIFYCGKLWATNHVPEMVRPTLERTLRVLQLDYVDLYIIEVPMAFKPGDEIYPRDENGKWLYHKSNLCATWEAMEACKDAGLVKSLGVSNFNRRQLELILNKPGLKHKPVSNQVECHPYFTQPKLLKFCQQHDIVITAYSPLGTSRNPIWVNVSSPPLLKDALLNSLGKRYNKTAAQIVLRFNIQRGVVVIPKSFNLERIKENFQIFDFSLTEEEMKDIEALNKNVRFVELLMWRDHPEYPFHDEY

[2] = molecular target: T1, AKR1D1 (human steroid 5β-reductase); experiment: stopped-flow binding, energy transfer fluorescence; settings: biphasic binding to free enzyme; 37 °C, pH 6.0, 4 % acetonitrile
[3] = molecular target: T1, AKR1D1 (human steroid 5β-reductase); experiment: stopped-flow competition with excess NADPH, energy transfer fluorescence; assay type: binding; settings: dissociation rate constant from binary complex; 37 °C, pH 6.0, 4 % acetonitrile

SMILES | Kd [1] | further results
CC(C)CCC[C@@H](C)[C@H]1CC[C@H]2[C@@H]3[C@H](O)CC4=CC(=O)CC[C@]4(C)[C@H]3CC[C@]12C [7α-hydroxycholestenone, 7α-hydroxy-4-cholesten-3-one] | 1300 ± 100 nM | –
NC(=O)C1=CN([C@@H]2O[C@H](COP(=O)(O)OP(=O)(O)OC[C@H]3O[C@@H](n4cnc5c(N)ncnc54)[C@H](OP(=O)(O)O)[C@@H]3O)[C@@H](O)[C@H]2O)C=CC1 [NADPH] | – | stopped-flow binding, energy transfer fluorescence [2]: AKR1D1 was mixed with NADPH and the process of NADPH binding to AKR1D1 was directly monitored
NC(=O)c1ccc[n+]([C@@H]2O[C@H](COP(=O)(O)OP(=O)(O)OC[C@H]3O[C@@H](n4cnc5c(N)ncnc54)[C@H](OP(=O)(O)O)[C@@H]3O)[C@@H](O)[C@H]2O)c1 [NADP^+] | – | koff [3]: 0.36 ± 0.01 s⁻¹
CC(C)(C)NC(=O)[C@H]1CC[C@H]2[C@@H]3CC[C@H]4NC(=O)C=C[C@]4(C)[C@H]3CC[C@]12C [finasteride] | 1140 ± 90 nM | –
